Where two headings read alike, the source gives them in different places.
Assays:
[1] = system: human Kupffer-HepatoPac™ cultures; assay type: cell-based
Experimental: Cryopreserved human hepatocytes, cryopreserved human Kupffer cells and 3T3 J2 mouse fibroblasts were used in the manufacturing of the co-culture platform. Cryopreserved hepatocyte vials were thawed in a 37° C. water bath for 90-120 seconds followed by dilution in 50 mL of pre-warmed percoll-based hepatocyte density sedimentation medium (p=1.06). The cell suspension was spun at 50×g for 5 minutes. The supernatant was discarded, cells were resuspended in hepatocyte culture media (HCM) (Hepregen Corporation, Medford, Mass.) and viability was assessed using trypan blue exclusion (typically 80-95%). Liver-derived non-parenchymal cells, as judged by their size (˜10 μm in diameter) and morphology (non-polygonal), were consistently found to be less than 1% in these preparations. […] Kupffer cells were gently rocked into suspension and evaluated for viability via Trypan Blue exclusion. […]
Cytotoxicity was assessed by evaluation of cellular ATP content while hepatocyte metabolic competence was assessed by urea production. […] The reaction is based on the acid catalyzed condensation of urea with diacetylmonoxime in the presence of thiosemicarbazide to yield a red purple chromogen that is read spectrophotometrically. The cellular ATP content was measured in cell lysates using the Cell Titer-Glo luminescent kit from Promega (Madison, Wis.). […]

mouse = details: cited from earlier work; for Effect on TVX/LPS toxic response: in vivo mouse model, Shaw et al.
[2] = system: human Kupffer cell-treated HepatoPac™ model; assay: Chronic toxicity platform, nine day treatment, cellular ATP content; assay type: cell-based; details: for Toxicity in the presence of LPS-stimulated Kupffer cells: 50 ng/ml LPS; for Toxicity following nine days of compound dosing: all treatment conditions (HepatoPac or Kupffer cell-treated, +/- LPS)
Experimental: Chronic toxicity of various compounds suspected to be immunoreactive was evaluated with the human Kupffer cell-treated HepatoPac™ model (hepatocyte:Kupffer cell ratio of 1:0.4). Following a nine day treatment, compound toxicity was assessed as a function of cellular ATP content. TVX was used as a positive control. […] On day 7, cryopreserved unmatched Kupffer cells were added to the cultures. The cultures were dosed with compounds on culture Day 8 (hereby referred to as Dosing Day 0). On Dosing Day 1, LPS was added to the culture media at a final concentration of 50 ng/ml. On Dosing Day 3, 10 μl of supernatant was removed from cultures for urea analysis and replaced with an additional dose of the test compound. Similarly, supernatant was collected and cultures were re-dosed on Dosing Days 5 and 7. On Dosing Day 9, supernatant was collected and the cellular ATP content of the cultures was assessed (Promega Cell Titer Glo). Urea secretion of hepatocytes was quantified for the time-points of Dosing Day […], 5, 7, and 9 (data not shown).

[3] = system: Human HepatoMune™ co-cultures; assay: cells
Experimental: Hepatocytes were seeded on micropatterned collagen plates on Day 0. On Day 1, 3T3 fibroblasts were added to the cultures. Human HepatoPac® co-cultures were allowed to stabilize functionally for 7 days in serum-supplemented medium. Human Kupffer cells (from unmatched donors) were seeded onto the hepatocyte cocultures on Day 7 of culture at a hepatocyte to Kupffer cell ratio of 10:4. […] Cell lysates from each treatment group were collected on days 11 and 14 of culture for assessment of drug-induced effects on cytotoxicity.

[4] = system: rat Kupffer-HepatoPac™ cultures; assay type: cell-based
Experimental: Cytotoxicity was assessed by evaluation of cellular ATP content while hepatocyte metabolic competence was assessed by urea production. Production of urea, a liver-specific function, was assayed in culture media using the Stanbio kit according to manufacturer's directions. The reaction is based on the acid catalyzed condensation of urea with diacetylmonoxime in the presence of thiosemicarbazide to yield a red purple chromogen that is read spectrophotometrically. The cellular ATP content was measured in cell lysates using the Cell Titer-Glo luminescent kit from Promega (Madison, Wis.).
HepatoPac™ co-cultures were first allowed to stabilize functionally in serum-supplemented media for a 7-day period. Species-matched Kupffer cells were added to human and rat HepatoPac™ at multiple ratios (to mimic both the normal and inflamed state of the liver). To mimic the physiological state, human and rate Kupffer cells were added at hepatocyte:Kupffer cell ratios of 1:0.1 and 1:0.2, respectively. To mimic the inflamed state human Kupffer cells (at a ratio of 1:0.4 hepatocytes:Kupffer cells) or rat Kupffer cells (at a ratio of 1:0.5 hepatocytes:Kupffer cells) were then added to the cultures. On day 8 of culture, the cultures were treated with increasing concentrations of either Trovafloxacin or Levofloxacin (0-400 μM) in serum-free media. 24 hrs later, the cultures were stimulated with 50 ng/mL LPS. […]

TNF-α = TNF-α secretion in TVX/LPS-treated rat cultures with pentoxifylline; assay type: cell-based; details: 5 mM pentoxifylline
Experimental: Cultures were treated with Trovafloxacin and 5 mM Pentoxifylline for 72 hours. After 24 hours of dosing, Kupffer cells were activated with 50 ng/ml of LPS.

[5] = system: HepatoPac™-Kupffer cell co-cultures; assay: IL-6 secretion after cytokine exposure of HepatoPac-Kupffer cell co-cultures; assay type: cell-based, human; details: 2 or 4 day treatment
Experimental: (§1) Cultures received 2 or 4 day treatment with IL-2, IL-1B, TNF-α, or IL-6 in serum-free media after which cytokine levels were assayed in their supernatants, Cyp3A4 activity was determined using the P450-Glo Assay (Promega), total ATP was measured (Promega Cell-Titer Glo) and RNA was extracted (Qiagen Rneasy).
Cultures were exposed to IL-2, IL-1B and TNF-α and secretion of IL-6 into the culture supernatant was measured.

Experimental for CYP3A4: as §1
Standard human HepatoPac™ and Kupffer cell-treated HepatoPac™ (hepatocyte:Kupffer cell ratio of 1:0.4) cultures were treated with the inflammatory cytokine IL-1B for 4 days. Sensitivity to IL-1B was measured as a function of Cyp3A4 activity repression. Following 4 days of IL-1B treatment, cytokines were removed and cultures were allowed to recover for 6 days.

N[C@@H]1[C@H]2CN(c3nc4c(cc3F)c(=O)c(C(=O)O)cn4-c3ccc(F)cc3F)C[C@@H]12 [TVX, trovafloxacin]
TVX toxicity on addition of TNF-α [1]: potentiates TVX toxicity
Toxicity under LPS-induced inflammatory stress (mouse; mouse, in vivo): toxic
Toxicity in the presence of LPS-stimulated Kupffer cells ([2]; 9-day treatment): increased toxicity
Toxicity following nine days of compound dosing [2]: toxicity in all treatment conditions was observed

CN(C)CCCN1c2ccccc2Sc2ccc(Cl)cc21 [chlorpromazine]
IC50 ([3]; read-out: IC50 (concentration at which 50% of the cells are dead), absence of LPS): 29 µM
IC50 ([3]; read-out: IC50 (concentration at which 50% of the cells are dead), presence of 50 ng/ml LPS): 17 µM

O=C(O)Cc1ccccc1Nc1c(Cl)cccc1Cl [diclofenac]
LPS-mediated toxicity after 3-day treatment ([2]; 3-day treatment (data not shown)): did not result in increased LPS-mediated toxicity
Toxicity in the presence of LPS-stimulated Kupffer cells ([2]; 9-day treatment): increased toxicity

CC(=O)N1CCN(c2ccc(OCC3COC(Cn4ccnc4)(c4ccc(Cl)cc4Cl)O3)cc2)CC1 (stereo not drawn) [ketoconazole]
Difference in TC50 between treatment groups ([2]; 9-day treatment): no significant difference
Toxicity following nine days of compound dosing [2]: toxicity in all treatment conditions was observed

C[C@H]1COc2c(N3CCN(C)CC3)c(F)cc3c(=O)c(C(=O)O)cn1c23 [levofloxacin]
Toxicity (cellular ATP content) [4]: not toxic

CC(=O)CCCCn1c(=O)c2c(ncn2C)n(C)c1=O [pentoxifylline]
Effect on TVX/LPS-induced HepatoPac toxicity ([4]; 5 mM pentoxifylline, 72 hours, 50 ng/ml LPS after 24 hours): significantly decreased
Effect on TNF-α secretion (TNF-α): significantly decreased
Effect on TVX/LPS toxic response (mouse): toxicity abrogation

IL-1B: inflammatory cytokine
CYP3A4 expression (CYP3A4): Repression of CYP3A4 expression
Cyp3A4 activity (CYP3A4): dose-dependent and Kupffer cell-enhanced repression
Time Cyp3A4 activity remained repressed after removal of IL-1B (CYP3A4; human, 96 h): 4 days
IL-6 secretion into the culture supernatant [5]: causes IL-6 release

IL-6: cytokine
Cyp3A4 activity (CYP3A4): maintains repression

TNF-α
IL-6 secretion into the culture supernatant [5]: no effect

etanercept
Effect on TVX/LPS toxic response (mouse): toxicity abrogation
